Results: ChEMBL document CHEMBL4190260, “Antibiofilm potential of 16-oxo-cleroda-3, 13(14) E-diene-15 oic acid and its five new γ-amino γ-lactone derivatives against methicillin resistant Staphylococcus aureus and Streptococcus mutans” (2017)
≈ marks a conversion by molar mass, not a printed value. Calls of active or inactive are those of the source. The rule behind the calls is not given here.

What was measured:
Streptococcus mutans [1] = experiment: Antibiofilm activity against Streptococcus mutans ATCC 25175 assessed as formation of oviod cells at MBIC concentration by uranyl acetate-staining based electron microscopy; type: functional, organism-based
Staphylococcus aureus [2] = experiment: Potency index, ratio of cefixime MIC to test compound MIC for methicillin-resistant Staphylococcus aureus ATCC 43300; type: functional
Staphylococcus aureus [3] = experiment: Antibacterial activity against methicillin-resistant Staphylococcus aureus ATCC 43300 assessed as delay in bacterial growth at 4 times MIC after 10 mins; type: functional, organism-based
Staphylococcus aureus [4] = experiment: Antibacterial activity against methicillin-resistant Staphylococcus aureus ATCC 43300 assessed as delay in bacterial growth at MIC after 10 mins; type: functional, organism-based
Streptococcus mutans [5] = experiment: Antibacterial activity against Streptococcus mutans ATCC 25175 assessed as reduction in acid production at 0.5 times MIC and MIC measured up to 24 hrs; type: functional, organism-based
Streptococcus mutans [6] = experiment: Antibacterial activity against Streptococcus mutans ATCC 25175 assessed as time delay in bacterial growth at MIC, 2 times MIC and 4 times MIC; type: functional
Streptococcus mutans [7] = experiment: Antibacterial activity against Streptococcus mutans ATCC 25175 measured after overnight incubation by two-fold serial dilution method; type: functional
Streptococcus mutans [8] = experiment: Antibacterial activity against Streptococcus mutans ATCC 25175 measured assessed as inhibition of colony formation at 5 to 20 ug/ml after 24 hrs; type: functional, organism-based
Streptococcus mutans [9] = experiment: Antibiofilm activity against Streptococcus mutans ATCC 25175 assessed as down-regulation of gtfC gene expression by semi-quantitative PCR analysis; type: functional, organism-based
Staphylococcus aureus [10] = experiment: Antibiofilm activity against methicillin-resistant Staphylococcus aureus ATCC 43300 measured after overnight incubation by crystal violet-staining based assay; type: functional
Staphylococcus aureus [11] = experiment: Potency index, ratio of gentamycin sulphate MIC to test compound MIC for methicillin-resistant Staphylococcus aureus ATCC 43300; type: functional
Streptococcus mutans [12] = experiment: Antibiofilm activity against Streptococcus mutans ATCC 25175 assessed as down-regulation of luxS gene expression by semi-quantitative PCR analysis; type: functional, organism-based
Staphylococcus aureus [13] = experiment: Bacteriostatic activity against methicillin-resistant Staphylococcus aureus ATCC 43300 assessed as log reduction in colony forming units at 15 to 20 ug/ml after 24 hrs; type: functional, organism-based
Streptococcus mutans [14] = experiment: Bacteriostatic activity against Streptococcus mutans ATCC 25175 assessed as log reduction in colony forming units at 12 to 16 ug/ml after 24 hrs; type: functional, organism-based
Staphylococcus aureus [15] = experiment: Antibacterial activity against methicillin-resistant Staphylococcus aureus ATCC 43300 assessed as inhibition of colony formation at 4 to 16 ug/ml measured after 24 hrs; type: functional, organism-based
Staphylococcus aureus [16] = experiment: Antibacterial activity against methicillin-resistant Staphylococcus aureus ATCC 43300 assessed as reduction in bacterial viability at 4 to 16 ug/ml measured after 24 hrs by MTT assay; type: functional
Streptococcus mutans [17] = experiment: Bactericidal activity against Streptococcus mutans ATCC 25175 measured after overnight incubation; type: functional
Streptococcus mutans [18] = experiment: Potency index, ratio of 6 amino penicillinic acid MIC to test compound MIC for Streptococcus mutans ATCC 25175; type: functional
Streptococcus mutans [19] = experiment: Potency index, ratio of cefixime MIC to test compound MIC for Streptococcus mutans ATCC 25175; type: functional
Staphylococcus aureus [20] = experiment: Antibacterial activity against methicillin-resistant Staphylococcus aureus ATCC 43300 assessed as delay in bacterial growth at 2 times MIC after 10 mins; type: functional, organism-based
Staphylococcus aureus [21] = experiment: Bactericidal activity against methicillin-resistant Staphylococcus aureus ATCC 43300 measured after overnight incubation; type: functional
Staphylococcus aureus [22] = experiment: Antibacterial activity against methicillin-resistant Staphylococcus aureus ATCC 43300 assessed as reduction in acid production at 0.5 times MIC and MIC measured up to 24 hrs; type: functional, organism-based
Streptococcus mutans [23] = experiment: Antibiofilm activity against Streptococcus mutans ATCC 25175 assessed as formation of broken chains at MBIC concentration by uranyl acetate-staining based electron microscopy; type: functional, organism-based
Staphylococcus aureus [24] = experiment: Antibacterial activity against methicillin-resistant Staphylococcus aureus ATCC 43300 measured after overnight incubation by two-fold serial dilution method; type: functional
Streptococcus mutans [25] = experiment: Antibiofilm activity against Streptococcus mutans ATCC 25175 assessed as disruption of biofilm at 10 to 12 ug/ml by fluorescence microscopy; type: functional, organism-based
Staphylococcus aureus [26] = experiment: Antibiofilm activity against methicillin-resistant Staphylococcus aureus ATCC 43300 assessed as down-regulation of IcaA gene expression by semi-quantitative PCR analysis; type: functional, organism-based
Klebsiella pneumoniae [27] = experiment: Antibacterial activity against Klebsiella pneumoniae ATCC 13882 measured after overnight incubation by two-fold serial dilution method; type: functional
Streptococcus mutans [28] = experiment: Antibiofilm activity against Streptococcus mutans ATCC 25175 measured after overnight incubation by crystal violet-staining based assay; type: functional
Streptococcus mutans [29] = experiment: Antibacterial activity against Streptococcus mutans ATCC 25175 measured assessed as reduction in bacterial viability at 5 to 20 ug/ml after 24 hrs by MTT assay; type: functional
Staphylococcus aureus [30] = experiment: Potency index, ratio of 6 amino penicillinic acid MIC to test compound MIC for methicillin-resistant Staphylococcus aureus ATCC 43300; type: functional
Staphylococcus aureus [31] = experiment: Antibiofilm activity against methicillin-resistant Staphylococcus aureus ATCC 43300 assessed as formation of oviod cells at MBIC concentration by uranyl acetate-staining based electron microscopy; type: functional, organism-based
Streptococcus mutans [32] = experiment: Antibiofilm activity against Streptococcus mutans ATCC 25175 assessed as down-regulation of gtfB gene expression by semi-quantitative PCR analysis; type: functional, organism-based
Staphylococcus aureus [33] = experiment: Antibiofilm activity against methicillin-resistant Staphylococcus aureus ATCC 43300 assessed as formation of broken chains at MBIC concentration by uranyl acetate-staining based electron microscopy; type: functional, organism-based
Staphylococcus aureus [34] = experiment: Antibacterial activity against methicillin-resistant Staphylococcus aureus ATCC 43300 assessed as log reduction in bacterial count at 8 ug/ml measured after 24 hrs; type: functional
Streptococcus mutans [35] = experiment: Antibacterial activity against Streptococcus mutans ATCC 25175 assessed as log reduction in bacterial count at 10 ug/ml measured after 24 hrs relative to control; type: functional
Staphylococcus aureus [36] = experiment: Antibiofilm activity against methicillin-resistant Staphylococcus aureus ATCC 43300 assessed as disruption of biofilm at 10 to 12 ug/ml by fluorescence microscopy; type: functional, organism-based
Proteus mirabilis [37] = experiment: Antibiofilm activity against Proteus mirabilis ATCC 12453 measured after overnight incubation by crystal violet-staining based assay; type: functional
Proteus mirabilis [38] = experiment: Antibacterial activity against Proteus mirabilis ATCC 12453 measured after overnight incubation by two-fold serial dilution method; type: functional
Klebsiella pneumoniae [39] = experiment: Antibiofilm activity against Klebsiella pneumoniae ATCC 13882 measured after overnight incubation by crystal violet-staining based assay; type: functional
Proteus mirabilis [40] = experiment: Antibiofilm activity against Proteus mirabilis ATCC 12453 at >= 50 ug/ml measured after overnight incubation by crystal violet-staining based assay; type: functional, organism-based
Klebsiella pneumoniae [41] = experiment: Antibiofilm activity against Klebsiella pneumoniae ATCC 13882 at >= 50 ug/ml measured after overnight incubation by crystal violet-staining based assay; type: functional, organism-based

Question: CC1=CCC[C@@H]2[C@@](C)(CC/C(C=O)=C\C(=O)O)[C@H](C)CC[C@@]12C was tested. Which Activity (Streptococcus mutans [1]) did it give?
Answer: Active

Question: What about the Ratio (Staphylococcus aureus [2]) of the same molecule?
Answer: 5

Question: And the Activity (Staphylococcus aureus [3])?
Answer: Active

Question: And the Activity (Staphylococcus aureus [4])?
Answer: Active

Question: And the Activity (Streptococcus mutans [5])?
Answer: Active

Question: What about the Time (Streptococcus mutans [6]) of the same molecule?
Answer: >=8 hr

Question: What about the MIC (Streptococcus mutans [7]) of the same molecule?
Answer: 20 µg/mL (≈ 62.8 µM)

Question: What about the Activity (Streptococcus mutans [8]) of the same molecule?
Answer: Active

Question: What about the Activity (Streptococcus mutans [9]) of the same molecule?
Answer: Active

Question: What about the Activity (Staphylococcus aureus [10]) of the same molecule?
Answer: 94.26%

Question: What about the MBIC (Staphylococcus aureus [10]) of the same molecule?
Answer: 16 µg/mL

Question: What about the Ratio (Staphylococcus aureus [11]) of the same molecule?
Answer: 5

Question: And the Activity (Streptococcus mutans [12])?
Answer: Active

Question: And the Activity (Staphylococcus aureus [13])?
Answer: Active

Question: What about the Activity (Streptococcus mutans [14]) of the same molecule?
Answer: Active

Question: What about the Activity (Staphylococcus aureus [15]) of the same molecule?
Answer: Active

Question: And the Activity (Staphylococcus aureus [16])?
Answer: <=90%

Question: What about the MBC (Streptococcus mutans [17]) of the same molecule?
Answer: 185 µg/mL (≈ 581 µM)

Question: What about the Ratio (Streptococcus mutans [18]) of the same molecule?
Answer: 5

Question: What about the Ratio (Streptococcus mutans [19]) of the same molecule?
Answer: 5

Question: What about the Activity (Staphylococcus aureus [20]) of the same molecule?
Answer: Active

Question: And the MBC (Staphylococcus aureus [21])?
Answer: 95 µg/mL (≈ 298 µM)

Question: What about the Activity (Staphylococcus aureus [22]) of the same molecule?
Answer: Active

Question: What about the Activity (Streptococcus mutans [23]) of the same molecule?
Answer: Active

Question: And the MIC (Staphylococcus aureus [24])?
Answer: 16 µg/mL (≈ 50.2 µM)

Question: What about the Activity (Streptococcus mutans [25]) of the same molecule?
Answer: Active

Question: What about the Activity (Staphylococcus aureus [26]) of the same molecule?
Answer: Active

Question: And the MIC (Klebsiella pneumoniae [27])?
Answer: inactive

Question: What about the Activity (Streptococcus mutans [28]) of the same molecule?
Answer: 92.06%

Question: What about the MBIC (Streptococcus mutans [28]) of the same molecule?
Answer: 20 µg/mL

Question: What about the Activity (Streptococcus mutans [29]) of the same molecule?
Answer: <=90%

Question: And the Ratio (Staphylococcus aureus [30])?
Answer: 5

Question: What about the Activity (Staphylococcus aureus [31]) of the same molecule?
Answer: Active

Question: What about the Activity (Streptococcus mutans [32]) of the same molecule?
Answer: Active

Question: And the Activity (Staphylococcus aureus [33])?
Answer: Active

Question: And the Activity (Staphylococcus aureus [34])?
Answer: 9 log10CFU/ml

Question: What about the Activity (Streptococcus mutans [35]) of the same molecule?
Answer: 7.5 - 8 log10CFU/ml

Question: And the Activity (Staphylococcus aureus [36])?
Answer: Active

Question: What does the source list for CN[C@@H]1[C@@H](O)[C@@H](O[C@@H]2[C@@H](O)[C@H](O[C@H]3O[C@H](CN)CC[C@H]3N)[C@@H](N)C[C@H]2N)OC[C@]1(C)O.O=S(=O)(O)O?
Answer: Activity (Proteus mirabilis [37]): 89.22%; MBIC (Proteus mirabilis [37]): 6.25 µg/mL; MIC (Streptococcus mutans [7]): 10 µg/mL; Activity (Staphylococcus aureus [10]): 90.8%; MBIC (Staphylococcus aureus [10]): 150 µg/mL; MIC (Proteus mirabilis [38]): 6.25 µg/mL; MIC (Staphylococcus aureus [24]): 135 µg/mL; MIC (Klebsiella pneumoniae [27]): 3 µg/mL; Activity (Streptococcus mutans [28]): 76.42%; MBIC (Streptococcus mutans [28]): 10 µg/mL; Activity (Klebsiella pneumoniae [39]): 89.92%; MBIC (Klebsiella pneumoniae [39]): 3 µg/mL

Question: For CC1(C)S[C@@H]2[C@H](N)C(=O)N2[C@H]1C(=O)O, which Activity (Proteus mirabilis [37]) is on record?
Answer: 89.2%

Question: And the MBIC (Proteus mirabilis [37])?
Answer: 35 µg/mL

Question: What about the MIC (Streptococcus mutans [7]) of the same molecule?
Answer: 70 µg/mL (≈ 324 µM)

Question: And the Activity (Staphylococcus aureus [10])?
Answer: 60.46%

Question: What about the MBIC (Staphylococcus aureus [10]) of the same molecule?
Answer: 150 µg/mL

Question: What about the MIC (Proteus mirabilis [38]) of the same molecule?
Answer: 35 µg/mL (≈ 162 µM)

Question: What about the MIC (Staphylococcus aureus [24]) of the same molecule?
Answer: 135 µg/mL (≈ 624 µM)

Question: And the MIC (Klebsiella pneumoniae [27])?
Answer: 35 µg/mL (≈ 162 µM)

Question: And the Activity (Streptococcus mutans [28])?
Answer: 29.31%

Question: And the MBIC (Streptococcus mutans [28])?
Answer: 7 µg/mL

Question: And the Activity (Klebsiella pneumoniae [39])?
Answer: 68.9%

Question: And the MBIC (Klebsiella pneumoniae [39])?
Answer: 35 µg/mL

Question: How did the MIC (Streptococcus mutans [7]) turn out when CC1=CCC[C@@H]2[C@@](C)(CC/C(C)=C/C(=O)O)[C@H](C)CC[C@@]12C was run?
Answer: inactive

Question: CC1=CCC[C@@H]2[C@@](C)(CCC3=CC(=O)OC3Nc3cccc(F)c3)[C@H](C)CC[C@@]12C (mixture of isomers) was tested. Which Activity (Proteus mirabilis [37]) did it give?
Answer: 68.75%

Question: And the MBIC (Proteus mirabilis [37])?
Answer: 110 µg/mL

Question: What about the MIC (Streptococcus mutans [7]) of the same molecule?
Answer: 60 µg/mL

Question: And the Activity (Staphylococcus aureus [10])?
Answer: 83.12%

Question: And the Activity (Proteus mirabilis [40])?
Answer: Active

Question: What about the Activity (Klebsiella pneumoniae [41]) of the same molecule?
Answer: Active

Question: And the MIC (Proteus mirabilis [38])?
Answer: 125 µg/mL

Question: And the MIC (Staphylococcus aureus [24])?
Answer: 60 µg/mL

Question: And the MIC (Klebsiella pneumoniae [27])?
Answer: inactive

Question: And the Activity (Streptococcus mutans [28])?
Answer: 73.17%

Question: And the MBIC (Streptococcus mutans [28])?
Answer: 55 µg/mL
